Results taken from ChEMBL document CHEMBL1201862, “PubChem BioAssay data set” (2004).
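Assay format: 96-well plates, 48-hour exposure. GI50 marks 50% less growth.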 Calls of active or inactive are those of the source. Rule as the data show it: active = GI50 up to about 1.1 µM and inactive = higher.

Legend:
Assay in all cases: growth of human tumour cells (NCI), 48 h
SK-MEL-28 = tested on: SK-MEL-28
CAKI-1 = tested on: CAKI-1
EKVX = tested on: EKVX
MOLT-4 = tested on: MOLT-4
HOP-62 = tested on: HOP-62
786-0 = tested on: 786-0
CCRF-CEM = tested on: CCRF-CEM
A498 = tested on: A498
NCI-H522 = tested on: NCI-H522
MDA-MB-435 = tested on: MDA-MB-435
MCF7 = tested on: MCF7
SF-295 = tested on: SF-295
NCI/ADR-RES = tested on: NCI/ADR-RES
MDA-MB-231 = tested on: MDA-MB-231
OVCAR-8 = tested on: OVCAR-8
Hs-578T = tested on: Hs-578T
SR = tested on: SR
SK-MEL-2 = tested on: SK-MEL-2
UACC-257 = tested on: UACC-257
HCC 2998 = tested on: HCC 2998

| SMILES | GI50 (SK-MEL-28) | GI50 (CAKI-1) | GI50 (EKVX) | GI50 (MOLT-4) | GI50 (HOP-62) | GI50 (786-0) | GI50 (CCRF-CEM) | GI50 (A498) | GI50 (NCI-H522) | GI50 (MDA-MB-435) | GI50 (MCF7) | GI50 (SF-295) | GI50 (NCI/ADR-RES) | GI50 (MDA-MB-231) | GI50 (OVCAR-8) | GI50 (Hs-578T) | GI50 (SR) | GI50 (SK-MEL-2) | GI50 (UACC-257) | GI50 (HCC 2998) |
| --- | --- | --- | --- | --- | --- | --- | --- | --- | --- | --- | --- | --- | --- | --- | --- | --- | --- | --- | --- | --- |
| Sc1nnc(SCc2ccccc2Cl)c2nc[nH]c12 | > 100 µM (inactive) | > 100 µM (inactive) | 74.8 µM (inactive) | > 100 µM (inactive) | > 100 µM (inactive) | > 100 µM (inactive) | > 100 µM (inactive) | > 100 µM (inactive) | > 100 µM (inactive) | > 100 µM (inactive) | > 100 µM (inactive) | > 100 µM (inactive) | > 100 µM (inactive) | > 100 µM (inactive) | > 100 µM (inactive) | > 100 µM (inactive) | > 100 µM (inactive) | > 100 µM (inactive) | > 100 µM (inactive) |  |
| CCNC(=O)c1c(O)nc2ccccc2c1O | > 100 µM (inactive) | 55.5 µM (inactive) | 32.3 µM (inactive) | 42 µM (inactive) | 64.9 µM (inactive) | 67.3 µM (inactive) | 52.2 µM (inactive) | > 100 µM (inactive) | 69.2 µM (inactive) | 59.7 µM (inactive) | 51.8 µM (inactive) | 80.9 µM (inactive) | > 100 µM (inactive) | 67.5 µM (inactive) | > 100 µM (inactive) | 40.5 µM (inactive) | 25.5 µM (inactive) |  | > 100 µM (inactive) | > 100 µM (inactive) |
| OC(c1cc(C(F)(F)F)nc2c(Cl)cc(Cl)cc12)C1CCCCN1 (configuration not stated) | 15.3 µM (inactive) | 8.97 µM (inactive) | > 100 µM (inactive) | 6.38 µM (inactive) | 3.77 µM (inactive) | 13.3 µM (inactive) | 1.27 µM (inactive) | > 36.1 µM (inactive) | 7.53 µM (inactive) | 5.61 µM (inactive) | 12.5 µM (inactive) | 12.2 µM (inactive) | 10.5 µM (inactive) | > 22.1 µM (inactive) | 13.2 µM (inactive) | > 22.4 µM (inactive) | 1.66 µM (inactive) | > 23.3 µM (inactive) |  | > 100 µM (inactive) |
| C[C@]12CC[C@@H]3c4ccc(O)cc4CC[C@H]3[C@@H]1C/C(=C\c1ccncc1)C2=O | 64.3 µM (inactive) | 33.2 µM (inactive) | 28.1 µM (inactive) | 4.71 µM (inactive) | 20.3 µM (inactive) |  | 15.3 µM (inactive) | 34 µM (inactive) |  | 4.46 µM (inactive) | 12 µM (inactive) | 24.9 µM (inactive) | 17.5 µM (inactive) | 41.4 µM (inactive) | 18.5 µM (inactive) | 14.2 µM (inactive) | 6.32 µM (inactive) | 12.8 µM (inactive) | 27.5 µM (inactive) | 30.6 µM (inactive) |
| O=C(/C=C/c1ccccc1)CSc1nc2ccc(I)cc2c(=O)n1Cc1ccccc1 | 99.5 µM (inactive) | 1.71 µM (inactive) | 7.18 µM (inactive) | 9.82 µM (inactive) | 14.3 µM (inactive) | 14.5 µM (inactive) | 11.3 µM (inactive) | 14.3 µM (inactive) | 12.3 µM (inactive) | 38.9 µM (inactive) | 28.6 µM (inactive) | 14 µM (inactive) | 14 µM (inactive) | 28.9 µM (inactive) | 25.5 µM (inactive) | 25.3 µM (inactive) | 8.81 µM (inactive) | 28.4 µM (inactive) | 19.4 µM (inactive) | 19.3 µM (inactive) |
| CC1(O)OC(=O)C2=C1CCC1C2CCC2(C)C(O)CCC12 (configuration not stated) | > 100 µM (inactive) | > 100 µM (inactive) | > 100 µM (inactive) | > 10 µM (inactive) | > 100 µM (inactive) | > 100 µM (inactive) | > 100 µM (inactive) | > 100 µM (inactive) | > 100 µM (inactive) | > 100 µM (inactive) | > 100 µM (inactive) | > 100 µM (inactive) | > 100 µM (inactive) | > 100 µM (inactive) | > 100 µM (inactive) | > 100 µM (inactive) | > 100 µM (inactive) |  | > 100 µM (inactive) | > 100 µM (inactive) |
| Cc1cccc(/C=N\NC(=S)N2CCCCC2)n1 | 0.532 µM (active) | 0.126 µM (active) | 0.673 µM (active) | < 0.01 µM (active) | 0.0776 µM (active) | 0.027 µM (active) | < 0.01 µM (active) | 0.0241 µM (active) | < 0.01 µM (active) | 0.56 µM (active) | < 0.01 µM (active) | 0.211 µM (active) | 0.0205 µM (active) | < 0.01 µM (active) | 0.036 µM (active) | 26.5 µM (inactive) | 0.019 µM (active) | 0.612 µM (active) | < 0.01 µM (active) | 9.77 µM (inactive) |
| O=C(/C=C/c1ccc(OCc2cccc(Cl)c2)cc1)NO | 26.2 µM (inactive) | 13.5 µM (inactive) | 23.9 µM (inactive) | 2.67 µM (inactive) | 18.2 µM (inactive) | 10.7 µM (inactive) | 2.65 µM (inactive) | 12.1 µM (inactive) | 7.41 µM (inactive) | 18.5 µM (inactive) | 39.5 µM (inactive) | 17.9 µM (inactive) | 5.78 µM (inactive) | 19.7 µM (inactive) | 6.31 µM (inactive) | 35 µM (inactive) | 3.55 µM (inactive) | 18 µM (inactive) | 38 µM (inactive) | 14.2 µM (inactive) |
| CC(=O)O[C@@H]1[C@H]2[C@@H](OC(=O)c3ccccc3)[C@@H](C)C[C@]2(O)[C@H](OC(C)=O)[C@@]2(C)[C@@H]3C[C@@](C)(OC(C)=O)C[C@@H](OC(C)=O)[C@@]3(OC(C)=O)C[C@@]12C |  | > 10 µM (inactive) | > 10 µM (inactive) | > 10 µM (inactive) | > 10 µM (inactive) | > 10 µM (inactive) | > 10 µM (inactive) | > 10 µM (inactive) | > 10 µM (inactive) | > 10 µM (inactive) | > 10 µM (inactive) | > 10 µM (inactive) | > 10 µM (inactive) | > 10 µM (inactive) | > 10 µM (inactive) | > 10 µM (inactive) | > 10 µM (inactive) | > 10 µM (inactive) | > 10 µM (inactive) | > 10 µM (inactive) |
| O=C1CC(=O)c2c(O)cc(O)c(c2O)-c2c(ccc(O)c2O)C2=CC(=O)c3c(O)cc(O)c(c3O2)-c2c1ccc(O)c2O.O=C1CC2(O)Oc3c1c(O)cc(O)c3-c1c(ccc(O)c1O)-c1cc(=O)c3c(O)cc(O)c(c3o1)-c1c2ccc(O)c1O | > 50 µM (inactive) | > 50 µM (inactive) | > 50 µM (inactive) | > 50 µM (inactive) | > 50 µM (inactive) |  | > 50 µM (inactive) | > 50 µM (inactive) |  | > 50 µM (inactive) | > 50 µM (inactive) | > 50 µM (inactive) | > 50 µM (inactive) | > 50 µM (inactive) | > 50 µM (inactive) | > 50 µM (inactive) | > 50 µM (inactive) | > 50 µM (inactive) | > 50 µM (inactive) | > 50 µM (inactive) |
| C/C(=N\Nc1nc2ccccc2[nH]1)c1cccc[n+]1[O-] | > 100 µM (inactive) | 34.5 µM (inactive) | 3.03 µM (inactive) | > 100 µM (inactive) | > 100 µM (inactive) | > 100 µM (inactive) | > 100 µM (inactive) | > 100 µM (inactive) | > 100 µM (inactive) | > 100 µM (inactive) | > 100 µM (inactive) | 3.48 µM (inactive) | 38.5 µM (inactive) | > 100 µM (inactive) | > 100 µM (inactive) | > 100 µM (inactive) | 30.1 µM (inactive) | > 100 µM (inactive) | > 100 µM (inactive) | 6.55 µM (inactive) |
| CC(C)(C)[Si](C)(C)OCC1OC(n2cnc3c(NC(=O)c4ccccc4)ncnc32)CC1O (configuration not stated) | 36.7 µM (inactive) | 49 µM (inactive) | 40.3 µM (inactive) | 19 µM (inactive) | 19 µM (inactive) | 21.4 µM (inactive) | 22.4 µM (inactive) | 32.9 µM (inactive) | 14.4 µM (inactive) | 22.1 µM (inactive) | 44.4 µM (inactive) | 24.4 µM (inactive) | 38.9 µM (inactive) | 22.1 µM (inactive) | 39.3 µM (inactive) | 19.2 µM (inactive) | 25.1 µM (inactive) | 27.2 µM (inactive) | 39.5 µM (inactive) | 27.7 µM (inactive) |
| c1ccc(C(NC2=NCCO2)C2CC2)cc1 (configuration not stated) | > 100 µM (inactive) |  | > 100 µM (inactive) | > 100 µM (inactive) | > 100 µM (inactive) | > 100 µM (inactive) |  | 93.1 µM (inactive) | > 100 µM (inactive) | 75.9 µM (inactive) | > 100 µM (inactive) | > 100 µM (inactive) | > 100 µM (inactive) | > 100 µM (inactive) | > 100 µM (inactive) | > 100 µM (inactive) | > 100 µM (inactive) | > 100 µM (inactive) | > 100 µM (inactive) | > 100 µM (inactive) |
| O=C(O)c1cnc2c(ccc3ncc(C(=O)O)c(O)c32)c1O | > 100 µM (inactive) | > 100 µM (inactive) | > 100 µM (inactive) | > 100 µM (inactive) | > 100 µM (inactive) | > 100 µM (inactive) |  | > 100 µM (inactive) | > 100 µM (inactive) | > 100 µM (inactive) | > 100 µM (inactive) | > 100 µM (inactive) | > 100 µM (inactive) | > 100 µM (inactive) | > 100 µM (inactive) | > 100 µM (inactive) | > 100 µM (inactive) | > 100 µM (inactive) | > 100 µM (inactive) |  |
